Blank lines part the entries; values can stand above or below the molecule they belong to.
Columns and labels:
Type in all cases: physicochemical
[1] = Stability of crystalline form (resistance to change in crystalline form)
Description: However, these solvate of Compound 1 are generally not as stable (for example, resistant to change in crystalline form) as Form I and Form X. This lack of stability generally requires special processing and storage conditions for the solvates, thus making them less desirable as a component of a solid form of a pharmaceutical preparation. […] Alternatively, processes for preparing Compound 1 may involve formation of a crystalline solvate form of Compound 1 as an intermediate step prior to final preparation of Form I or Form X. For example, the purification and/or isolation of the crystalline solvates of Compound 1 may be used to remove impurities prior to conversion of the crystalline solvates to Form I and/or Form X using methods described herein.
Despite the lower stability of the other crystalline forms of Compound 1 (Forms II, Ill, IV, VI, VII and IX), the other crystalline forms are still useful as intermediates to prepare Form I and/or Form X as described herein.

[2] = Storage stability of solid form samples at controlled temperature and relative humidity; conditions: at least 9 months at 25° and 60% and at least 6 months at 40° and 75% relative humidity; both storage conditions
Method: Samples of Form I were maintained for at least 9 months at 25°, and 60% and at least 6 months at 40° and 75% relative humidity.
Samples of Form X were maintained for at least 9 months at 25°, and 60% and at least 6 months at 40° and 75% relative humidity.

[3] = Dynamic Vapor Sorption (DVS) water sorption isotherm
Method: Water sorption isotherms are determined using a dynamic vapor sorption system (Advantage 1, DVS, London, UKDVS Intrinsic Plus, Surface Measurement Systems, Allentown, PA). Approximately 5-10 mg of solid is weighed into a tared aluminum pan. […] Equilibration criteria are dm/dt of 0.002% over 5 minutes or 360 minutes at a specified % RH. Each sample is equilibrated at each RH step for at least 60 min, and equilibrium is assumed if weight increase is less than 0.1% within one minute, and the maximum duration on each RH is 6 hours. Therefore, each sample is held at a given RH for 1 to 6 hours depending on how fast the equilibrium is reached. Exemplary DVS of the compounds of the invention are found in the Figures.

[4] = Biopharmaceutics Classification System (BCS) classification

conversion of crystalline form ([1]; at elevated temperature and/or under high humidity): convert to Form I and/or Form X
Compound: C[C@]1(CO)Cc2ncn(-c3ccc(C#N)c(Cl)c3)c2C(=O)O1 [Form IV, 2-chloro-4-[(6R)-6-(hydroxymethyl)-6-methyl-4-oxo-3H,4H,6H,7H-pyrano[3,4-d]imidazol-3-yl]benzonitrile]

impurity levels after storage [2]: no increase in impurity levels
particle size distribution after storage [2]: no change in particle sized distribution
solid form after storage [2]: no change in solid form
water content after storage [2]: no increase in water content
water uptake (DVS) ([3]; at 95% Rh during the second cycle, 25° C.): about 0.4 % (wt.)
hygroscopicity (from DVS plot) ([3]; second DVS cycle): non-hygroscopic
BCS class [4]: class 1
relative stability of crystalline form (resistance to change in form) ([1]; compared with Form II, Form III and the crystalline solvate forms): more stable
Compound: C[C@]1(CO)Cc2ncn(-c3ccc(C#N)c(Cl)c3)c2C(=O)O1 [Form I, 2-chloro-4-[(6R)-6-(hydroxymethyl)-6-methyl-4-oxo-3H,4H,6H,7H-pyrano[3,4-d]imidazol-3-yl]benzonitrile]

Compound: C[C@]1(CO)Cc2ncn(-c3ccc(C#N)c(Cl)c3)c2C(=O)O1 [Form VI, 2-chloro-4-[(6R)-6-(hydroxymethyl)-6-methyl-4-oxo-3H,4H,6H,7H-pyrano[3,4-d]imidazol-3-yl]benzonitrile]
solid form transformation during DVS (solvent replaced by water) ([3]; DVS cycles, 25° C.): transformed to a mixture of Form I and Form III
mass stability over humidity range (DVS profile) ([3]; sharp descending step when 80% RH was reached): stable over a wide humidity range from RH=0 to the 80%

water uptake (DVS) ([3]; at 90% Rh during the second cycle, 25° C.): about 0.07%
Compound: C[C@]1(CO)Cc2ncn(-c3ccc(C#N)c(Cl)c3)c2C(=O)O1 [Form X, 2-chloro-4-[(6R)-6-(hydroxymethyl)-6-methyl-4-oxo-3H,4H,6H,7H-pyrano[3,4-d]imidazol-3-yl]benzonitrile]

From patent US20250255851A1, “SOLID FORMS OF AN ALDOSTERONE SYNTHASE INHIBITOR” (Boehringer Ingelheim International GmbH, priority 2024, published 2025)
